Target: T1, EGFR (Homo sapiens, UniProt P00533)
T1 construct: started at nucleotide 2189 (corresponding to amino acid 667) and ended at the termination codon; made in house; host or cells: Sf9 insect cells (baculovirus)
Assay: EGFR Kinase Assay
Assay type: biochemical
Details: GST-EGFR, 5 μM ATP
Text: The portion was PCR amplified with primers that added the lambda attB sequences to each end, recombined into an entry vector, then into a, GST destination vector (as described in Gateway Technologies Manual by Invitrogen Corporation, Carlsbad, Calif.).
The destination vector was recombined in the DH10BAC strain of bacteria to produce a bacmid. The bacmid was transfected into Sf 9 cells and the supernatant containing the baculovirus was collected. The GSTEGFR protein was purified using large cultures of Sf 9 cells infected with stock virus. After an appropriate period of time, the cells were collected and lysed. The GSTEGFR was then purified from the lysate on Glutathione-Sepharose columns (as described by Amersham Biosciences, Buckinghamshire, United Kingdom).
The free biotin was separated from the biotinylated polyGluTyr on a gel filtration column.
A mixture of a 10× kinase buffer (500 mM Tris at pH 8.0, 100 mM Magnesium Chloride and 1 mM Sodium Vanadate), DTT (1 mM final from 500 mM stock), ATP (5 μM final from 10 mM stock), biotinylated polyGluTyr (10 μg/μL stock), γ-^33P ATP (10 μCi/μL stock) and water was added to each well (90 μL/well) of a Streptavidin Flashplate (Perkin Elmer, Wellesley, Mass.).
Test compound in 100% DMSO (2 μL) was added to the appropriate wells. Diluted GSTEGFR (1:300 dilution in 50 mM Tris at pH 8.0 and 0.1% bovine serum albumin) (10 μL) was added to the wells to initiate the reactions.
The plates were incubated at 30° C. for 1 hr with shaking. The reacted contents were removed and the plates were sequentially washed three times with a 1×PBS stop buffer (300 μL without Magnesium and Calcium) and 100 mM EDTA. After the final wash, the same stop buffer (200 μL) was added to the wells. The plates were then sealed and read on the TopCount scintillation counter.
Test compounds were assayed in triplicate at 16 concentrations at half-log dilutions starting at 200 uM. A maximum and minimum signal for the assay was determined on each plate. The percent inhibition of a test compound was calculated according to the formula
For a series of test concentrations, the IC50 was derived by graphing percent inhibition against the log of the concentrations tested for a given compound.

T1 sequence (P00533 667-1210 limits assumed): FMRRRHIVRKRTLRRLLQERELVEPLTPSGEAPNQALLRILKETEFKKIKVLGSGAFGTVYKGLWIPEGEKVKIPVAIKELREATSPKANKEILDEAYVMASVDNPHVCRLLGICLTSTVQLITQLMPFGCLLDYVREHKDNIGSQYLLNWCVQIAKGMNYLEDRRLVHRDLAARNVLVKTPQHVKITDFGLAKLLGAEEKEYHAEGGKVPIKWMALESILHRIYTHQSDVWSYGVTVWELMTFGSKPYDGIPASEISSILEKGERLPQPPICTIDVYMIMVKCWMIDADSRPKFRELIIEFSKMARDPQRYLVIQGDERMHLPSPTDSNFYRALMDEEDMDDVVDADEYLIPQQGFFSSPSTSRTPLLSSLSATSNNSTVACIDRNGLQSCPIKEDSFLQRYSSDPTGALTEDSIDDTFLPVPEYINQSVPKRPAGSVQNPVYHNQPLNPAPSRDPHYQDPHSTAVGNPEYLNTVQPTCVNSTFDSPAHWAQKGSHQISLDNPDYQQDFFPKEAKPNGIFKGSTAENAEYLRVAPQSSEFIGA

| SMILES | IC50 [nM] |
| --- | --- |
| Fc1ccc(Nc2ncnc3nc(Nc4ccc(N5CCOCC5)cc4)sc23)cc1Cl [Cpd 1, N^7-(3-chloro-4-fluoro-phenyl)-N^2-(4-morpholin-4-yl-phenyl)-thiazolo[4,5-d]pyrimidine-2,7-diamine] | 44 |
| CCc1nccn1Cc1ccc(Nc2nc3ncnc(Nc4cccc(Cl)c4)c3s2)cc1 [Cpd 7, N^7-(3-chloro-phenyl)-N^2-[4-(2-ethyl-imidazol-1-ylmethyl)-phenyl]-thiazolo[4,5-d]pyrimidine-2,7-diamine] | 13 |
| Clc1cccc(Nc2ncnc3nc(Nc4ccc(Cc5ccncc5)cc4)sc23)c1 [Cpd 9, N^7-(3-chloro-phenyl)-N^2-(4-pyridin-4-ylmethyl-phenyl)-thiazolo[4,5-d]pyrimidine-2,7-diamine] | 18 |
| CN(C)Cc1ccc(Nc2nc3ncnc(Nc4ccc(F)c(Cl)c4)c3s2)cc1 [Cpd 10, N^7-(3-chloro-4-fluoro-phenyl)-N^2-(4-dimethylaminomethyl-phenyl)-thiazolo[4,5-d]pyrimidine-2,7-diamine] | 12.3 |
| Oc1ccc(Nc2nc3ncnc(Nc4ccc(F)c(Cl)c4)c3s2)cc1 [Cpd 13, 4-[7-(3-chloro4-fluoro-phenylamino)-thiazolo[4,5-d]pyrimidin-2-ylamino]-phenol] | 95 |
| Fc1ccc(Nc2ncnc3nc(Nc4ccc(OCCN5CCOCC5)cc4)sc23)cc1Cl [Cpd 14, N^7-(3-chloro-4-fluoro-phenyl)-N^2-[4-(2-morpholin-4-yl-ethoxy)-phenyl]-thiazolo[4,5-d]pyrimidine-2,7-diamine] | 59.4 |
| Fc1ccc(Nc2ncnc3nc(Nc4ccc(OCCCN5CCN(c6ccc(Cl)cc6)CC5)cc4)sc23)cc1Cl [Cpd 16, N^7-(3-chloro-4-fluoro-phenyl)-N^2-(4-{3-[4-(4-chloro-phenyl)-piperazin-1-yl]-propoxy}-phenyl)-thiazolo[4,5-d]pyrimidine-2,7-diamine] | 165 |
| Fc1ccc(Nc2ncnc3nc(Nc4ccc(Cn5ccnc5)cc4)sc23)cc1Cl [Cpd 23, N^7-(3-chloro-4-fluoro-phenyl)-N^2-(4-imidazol-1-ylmethyl-phenyl)-thiazolo[4,5-d]pyrimidine-2,7-diamine] | 6.3 |
| CC1CC(C)CN(Cc2ccc(Nc3nc4ncnc(Nc5ccc(F)c(Cl)c5)c4s3)cc2)C1 (stereo not drawn) [Cpd 24, N^7-(3-chloro-4-fluoro-phenyl)-N^2-[4-(3,5-dimethyl-piperidin-1-ylmethyl)-phenyl]-thiazolo[4,5-d]pyrimidine-2,7-diamine] | 21.6 |
| CN(C)C(=O)c1ccc(Nc2nc3ncnc(Nc4ccc(F)c(Cl)c4)c3s2)cc1 [Cpd 27, 4-[7-(3-chloro-4-fluoro-phenylamino)-thiazolo[4,5-d]pyrimidin-2-ylamino]-N,N-dimethyl-benzamide] | 15 |
| CCc1nccn1Cc1ccc(Nc2nc3ncnc(Nc4ccc(F)c(Cl)c4)c3s2)cc1 [Cpd 30, N^7-(3-chloro-4-fluoro-phenyl)-N^2-[4-(2-ethyl-imidazol-1-ylmethyl)-phenyl]-thiazolo[4,5-d]pyrimidine-2,7-diamine] | 5.5 |
| c1ccc(Cn2ncc3ccc(Nc4ncnc5nc(Nc6ccc(CN7CCOCC7)cc6)sc45)cc32)cc1 [Cpd 36, N^7-(1-benzyl-1H-indazol-6-yl)-N^2-(4-morpholin-4-ylmethyl-phenyl)-thiazolo[4,5-d]pyrimidine-2,7-diamine] | 1020 |
| C#Cc1cccc(Nc2ncnc3nc(Nc4ccc(S(=O)(=O)NCCCN(C)C)cc4)sc23)c1 [Cpd 37, N-(3-dimethylamino-propyl)-4-[7-(3-ethynyl-phenylamino)-thiazolo[4,5-d]pyrimidin-2-ylamino]-benzenesulfonamide] | 25.3 |
| C#Cc1cccc(Nc2ncnc3nc(Nc4ccc(CN(CCOC)CCOC)cc4)sc23)c1 [Cpd 38, N^2-(4-{[bis-(2-methoxy-ethyl)-amino]-methyl}-phenyl)-N^7-(3-ethynyl-phenyl)-thiazolo[4,5-d]pyrimidine-2,7-diamine] | 28.5 |
| O=S(=O)(NCCO)c1ccc(Nc2nc3ncnc(Nc4ccc(F)c(Cl)c4)c3s2)cc1 [Cpd 39, 4-[7-(3-chloro-4-fluoro-phenylamino)-thiazolo[4,5-d]pyrimidin-2-ylamino]-N-(2-hydroxy-ethyl)-benzenesulfonamide] | 2.5 |
| O=S(=O)(NCCN1CCOCC1)c1ccc(Nc2nc3ncnc(Nc4ccc(F)c(Cl)c4)c3s2)cc1 [Cpd 40, 4-[7-(3-chloro-4-fluoro-phenylamino)-thiazolo[4,5-d]pyrimidin-2-ylamino]-N-(2-morpholin-4-yl-ethyl)-benzenesulfonamide] | 9 |
| O=S(=O)(NCCCN1CCOCC1)c1ccc(Nc2nc3ncnc(Nc4ccc(F)c(Cl)c4)c3s2)cc1 [Cpd 41, 4-[7-(3-chloro-4-fluoro-phenylamino)-thiazolo[4,5-d]pyrimidin-2-ylamino]-N-(3-morpholin-4-yl-propyl)-benzenesulfonamide] | 10 |

Other lines, results leading:

| IC50 [nM] | SMILES |
| --- | --- |
| 119 | Fc1ccc(Nc2ncnc3nc(Nc4cccc(CN5CCOCC5)c4)sc23)cc1Cl [Cpd 3, N^7-(3-chloro-4-fluoro-phenyl)-N^2-(3-morpholin-4-ylmethyl-phenyl)-thiazolo[4,5-d]pyrimidine-2,7-diamine] |
| 18.4 | CN1CCN(Cc2ccc(Nc3nc4ncnc(Nc5ccc(F)c(Cl)c5)c4s3)cc2)CC1 [Cpd 5, N^7-(3-chloro-4-fluoro-phenyl)-N^2-[4-(4-methyl-piperazin-1-ylmethyl)-phenyl]-thiazolo[4,5-d]pyrimidine-2,7-diamine] |
| 20 | COc1cc(Nc2nc3ncnc(Nc4ccc(F)c(Cl)c4)c3s2)ccc1CN1CCCCC1 [Cpd 6, N^7-(3-chloro-4-fluoro-phenyl)-N^2-(3-methoxy4-piperidin-1-ylmethyl-phenyl)-thiazolo[4,5-d]pyrimidine-2,7-diamine] |
| 34.7 | Clc1cccc(Nc2ncnc3nc(Nc4cccc(CN5CCCCC5)c4)sc23)c1 [Cpd 8, N^7-(3-chloro-phenyl)-N^2-(3-piperidin-1-ylmethyl-phenyl)-thiazolo[4,5-d]pyrimidine-2,7-diamine] |
| 117 | COc1ccc(Nc2nc3ncnc(Nc4ccc(F)c(Cl)c4)c3s2)cc1 [Cpd 12, N^7-(3-chloro4-fluoro-phenyl)-N^2-(4-methoxy-phenyl)-thiazolo[4,5-d]pyrimidine-2,7-diamine] |
| 90.1 | Fc1ccc(Nc2ncnc3nc(Nc4ccc(OCCN5CCCC5)cc4)sc23)cc1Cl [Cpd 15, N^7-(3-chloro-4-fluoro-phenyl)-N^2-[4-(2-pyrrolidin-1-yl-ethoxy)-phenyl]-thiazolo[4,5-d]pyrimidine-2,7-diamine] |
| 6 | Fc1ccc(Nc2ncnc3nc(Nc4ccc(CN5CCCCCC5)cc4)sc23)cc1Cl [Cpd 19, N^2-(4-azepan-1-ylmethyl-phenyl)-N^7-(3-chloro-4-fluoro-phenyl)-thiazolo[4,5-d]pyrimidine-2,7-diamine] |
| 49.3 | Fc1ccc(Nc2ncnc3nc(Nc4ccc(CN5CCSCC5)cc4)sc23)cc1Cl [Cpd 20, N7-(3-chloro-4-fluoro-phenyl)-N^2-(4-thiomorpholin4-ylmethyl-phenyl)-thiazolo[4,5-d]pyrimidine-2,7-diamine] |
| 13.3 | CN(Cc1ccc(Nc2nc3ncnc(Nc4ccc(F)c(Cl)c4)c3s2)cc1)C1CCCCC1 [Cpd 21, N^7-(3-chloro-4-fluoro-phenyl)-N^2-{4-[(cyclohexyl-methyl-amino)-methyl]-phenyl}-thiazolo[4,5-d]pyrimidine-2,7-diamine] |
| 9.3 | NCC1CCN(Cc2ccc(Nc3nc4ncnc(Nc5ccc(F)c(Cl)c5)c4s3)cc2)CC1 [Cpd 22, N^2-[4-(4-aminomethyl-piperidin-1-ylmethyl)-phenyl]-N^7-(3-chloro-4-fluoro-phenyl)-thiazolo[4,5-d]pyrimidine-2,7-diamine] |
| 11.8 | COC[C@@H]1CCCN1Cc1ccc(Nc2nc3ncnc(Nc4ccc(F)c(Cl)c4)c3s2)cc1 [Cpd 26, N^7-(3-chloro-4-fluoro-phenyl)-N^2-[4-(2S)-(2-methoxymethyl-pyrrolidin-1-ylmethyl)-phenyl]-thiazolo[4,5-d]pyrimidine-2,7-diarmine] |
| 57 | CCOC(=O)N1CCN(Cc2ccc(Nc3nc4ncnc(Nc5ccc(F)c(Cl)c5)c4s3)cc2)CC1 [Cpd 28, 4-{4-[7-(3-chloro-4-fluoro-phenylamino)-thiazolo[4,5-d]pyrimidin-2-ylamino]-benzyl}-piperazine-1-carboxylic acid ethyl ester] |
| 27.8 | CCOC(=O)C1CCN(Cc2ccc(Nc3nc4ncnc(Nc5ccc(F)c(Cl)c5)c4s3)cc2)CC1 [Cpd 29, 1-{4-[7-(3-chloro-4-fluoro-phenylamino)-thiazolo[4,5-d]pyrimidin-2-ylamino]-benzyl}-piperidine-4-carboxylic acid ethyl ester] |

Reference: patent US7605154B2, “Substituted Thiazolo [4,5-d]pyrimidines as protein kinase inhibitors” (Janssen Pharmaceutica N.V., priority 2005, dated 2009)
